Reference: PubChem BioAssay (NCI)
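Compound exposure: 48 hours, 5 concentrations, 96-well plates. TGI marks complete inhibition of growth.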

Experiments:
Experiment in all cases: growth of human tumour cells (NCI), 48 h
786-0 renal = tested on: 786-0 renal
A549 NSCLC = tested on: A549 NSCLC
ACHN renal = tested on: ACHN renal
BT-549 breast = tested on: BT-549 breast
CAKI-1 renal = tested on: CAKI-1 renal
CCRF-CEM leukemia = tested on: CCRF-CEM leukemia
COLO 205 colon = tested on: COLO 205 colon
DU-145 prostate = tested on: DU-145 prostate
EKVX NSCLC = tested on: EKVX NSCLC
HCC-2998 colon = tested on: HCC-2998 colon
HCT-116 colon = tested on: HCT-116 colon
HCT-15 colon = tested on: HCT-15 colon
HOP-62 NSCLC = tested on: HOP-62 NSCLC
HOP-92 NSCLC = tested on: HOP-92 NSCLC
HS 578T breast = tested on: HS 578T breast
HT29 colon = tested on: HT29 colon
IGROV1 ovarian = tested on: IGROV1 ovarian
K-562 leukemia = tested on: K-562 leukemia
KM12 colon = tested on: KM12 colon
M14 melanoma = tested on: M14 melanoma
MALME-3M melanoma = tested on: MALME-3M melanoma
MCF7 breast = tested on: MCF7 breast
MDA-MB-231 breast = tested on: MDA-MB-231 breast
MDA-MB-435 = tested on: MDA-MB-435
MDA-N = tested on: MDA-N
MOLT-4 leukemia = tested on: MOLT-4 leukemia
NCI-H226 lung = tested on: NCI-H226 lung
NCI-H23 lung = tested on: NCI-H23 lung
NCI-H460 lung = tested on: NCI-H460 lung
OVCAR-3 ovarian = tested on: OVCAR-3 ovarian
OVCAR-4 ovarian = tested on: OVCAR-4 ovarian
OVCAR-5 ovarian = tested on: OVCAR-5 ovarian
OVCAR-8 ovarian = tested on: OVCAR-8 ovarian
PC-3 prostate = tested on: PC-3 prostate
RPMI-8226 leukemia = tested on: RPMI-8226 leukemia
RXF 393 renal = tested on: RXF 393 renal
SF-268 CNS = tested on: SF-268 CNS
SF-295 CNS = tested on: SF-295 CNS
SF-539 CNS = tested on: SF-539 CNS
SK-MEL-2 melanoma = tested on: SK-MEL-2 melanoma
SK-MEL-28 melanoma = tested on: SK-MEL-28 melanoma
SK-MEL-5 melanoma = tested on: SK-MEL-5 melanoma
SK-OV-3 ovarian = tested on: SK-OV-3 ovarian
SN12C renal = tested on: SN12C renal
SNB-19 CNS = tested on: SNB-19 CNS
SNB-75 CNS = tested on: SNB-75 CNS
SR leukemia = tested on: SR leukemia
SW-620 colon = tested on: SW-620 colon
T-47D breast = tested on: T-47D breast
TK-10 renal = tested on: TK-10 renal
U251 CNS = tested on: U251 CNS
UACC-257 melanoma = tested on: UACC-257 melanoma
UACC-62 melanoma = tested on: UACC-62 melanoma
A498 renal = tested on: A498 renal
HL-60(TB) leukemia = tested on: HL-60(TB) leukemia
LOX IMVI melanoma = tested on: LOX IMVI melanoma
NCI-H522 lung = tested on: NCI-H522 lung
NCI/ADR-RES ovarian = tested on: NCI/ADR-RES ovarian
UO-31 renal = tested on: UO-31 renal

O=C1C(N2CCNCC2)=C(Cl)C(=O)c2ncccc21
TGI (786-0 renal): > 10 µM | TGI (A549 NSCLC): > 10 µM | TGI (ACHN renal): > 10 µM | TGI (BT-549 breast): > 10 µM | TGI (CAKI-1 renal): > 10 µM | TGI (CCRF-CEM leukemia): > 10 µM | TGI (COLO 205 colon): > 10 µM | TGI (DU-145 prostate): > 10 µM | TGI (EKVX NSCLC): > 10 µM | TGI (HCC-2998 colon): > 10 µM | TGI (HCT-116 colon): 4.36 µM | TGI (HCT-15 colon): > 10 µM | TGI (HOP-62 NSCLC): > 10 µM | TGI (HOP-92 NSCLC): 7.82 µM | TGI (HS 578T breast): > 10 µM | TGI (HT29 colon): > 10 µM | TGI (IGROV1 ovarian): > 10 µM | TGI (K-562 leukemia): > 10 µM | TGI (KM12 colon): > 10 µM | TGI (M14 melanoma): > 10 µM | TGI (MALME-3M melanoma): > 10 µM | TGI (MCF7 breast): > 10 µM | TGI (MDA-MB-231 breast): > 10 µM | TGI (MDA-MB-435): > 10 µM | TGI (MDA-N): > 10 µM | TGI (MOLT-4 leukemia): > 10 µM | TGI (NCI-H226 lung): > 10 µM | TGI (NCI-H23 lung): > 10 µM | TGI (NCI-H460 lung): > 10 µM | TGI (OVCAR-3 ovarian): > 10 µM | TGI (OVCAR-4 ovarian): > 10 µM | TGI (OVCAR-5 ovarian): > 10 µM | TGI (OVCAR-8 ovarian): > 10 µM | TGI (PC-3 prostate): > 10 µM | TGI (RPMI-8226 leukemia): > 10 µM | TGI (RXF 393 renal): > 10 µM | TGI (SF-268 CNS): > 10 µM | TGI (SF-295 CNS): > 10 µM | TGI (SF-539 CNS): > 10 µM | TGI (SK-MEL-2 melanoma): > 10 µM | TGI (SK-MEL-28 melanoma): > 10 µM | TGI (SK-MEL-5 melanoma): > 10 µM | TGI (SK-OV-3 ovarian): > 10 µM | TGI (SN12C renal): > 10 µM | TGI (SNB-19 CNS): > 10 µM | TGI (SNB-75 CNS): > 10 µM | TGI (SR leukemia): > 10 µM | TGI (SW-620 colon): > 10 µM | TGI (T-47D breast): > 10 µM | TGI (TK-10 renal): > 10 µM | TGI (U251 CNS): > 10 µM | TGI (UACC-257 melanoma): > 10 µM | TGI (UACC-62 melanoma): > 10 µM

COc1cc(NC(C)=O)ccc1C(=O)N/N=C/c1ccc(Cl)cc1Cl
TGI (786-0 renal): 64.4 µM | TGI (A498 renal): 61 µM | TGI (A549 NSCLC): > 100 µM | TGI (ACHN renal): > 100 µM | TGI (BT-549 breast): > 100 µM | TGI (CAKI-1 renal): > 100 µM | TGI (CCRF-CEM leukemia): > 100 µM | TGI (COLO 205 colon): > 100 µM | TGI (DU-145 prostate): > 100 µM | TGI (EKVX NSCLC): > 100 µM | TGI (HCC-2998 colon): > 100 µM | TGI (HCT-116 colon): > 100 µM | TGI (HCT-15 colon): > 100 µM | TGI (HL-60(TB) leukemia): > 100 µM | TGI (HOP-62 NSCLC): > 100 µM | TGI (HOP-92 NSCLC): > 100 µM | TGI (HS 578T breast): > 100 µM | TGI (HT29 colon): > 100 µM | TGI (IGROV1 ovarian): > 100 µM | TGI (K-562 leukemia): > 100 µM | TGI (KM12 colon): > 100 µM | TGI (LOX IMVI melanoma): > 100 µM | TGI (M14 melanoma): > 100 µM | TGI (MALME-3M melanoma): > 100 µM | TGI (MCF7 breast): > 100 µM | TGI (MDA-MB-435): 56.4 µM | TGI (MDA-N): 72.7 µM | TGI (MOLT-4 leukemia): > 100 µM | TGI (NCI-H226 lung): > 100 µM | TGI (NCI-H23 lung): > 100 µM | TGI (NCI-H522 lung): > 100 µM | TGI (NCI/ADR-RES ovarian): > 100 µM | TGI (OVCAR-3 ovarian): > 100 µM | TGI (OVCAR-4 ovarian): 85.5 µM | TGI (OVCAR-5 ovarian): > 100 µM | TGI (OVCAR-8 ovarian): > 100 µM | TGI (PC-3 prostate): > 100 µM | TGI (RPMI-8226 leukemia): > 100 µM | TGI (RXF 393 renal): 72.5 µM | TGI (SF-268 CNS): > 100 µM | TGI (SF-295 CNS): > 100 µM | TGI (SF-539 CNS): > 100 µM | TGI (SK-MEL-2 melanoma): 51.3 µM | TGI (SK-MEL-28 melanoma): > 100 µM | TGI (SK-MEL-5 melanoma): > 100 µM | TGI (SK-OV-3 ovarian): > 100 µM | TGI (SN12C renal): 64.6 µM | TGI (SNB-19 CNS): > 100 µM | TGI (SNB-75 CNS): 36.5 µM | TGI (SR leukemia): > 100 µM | TGI (SW-620 colon): > 100 µM | TGI (T-47D breast): 70.8 µM | TGI (UACC-257 melanoma): 70.9 µM | TGI (UACC-62 melanoma): > 100 µM | TGI (UO-31 renal): > 100 µM
